What was measured:
PIK3CA (human) = PIK3CA (human) (UniProt P42336); test: Inhibition of PIK3CA Kinase Activity
PIK3CB (Human) = PIK3CB (Human) (UniProt P42338); test: Inhibition of PIK3CB Kinase Activity
PIK3CG (human) = PIK3CG (human) (UniProt P48736); test: Inhibition of PIK3CG Kinase Activity
PIK3CD (Human) = PIK3CD (Human) (UniProt O00329); test: Inhibition of PIK3CD Kinase Activity

Measured: IC50

PIK3CB (Human), sequence (P42338 whole entry, looked up): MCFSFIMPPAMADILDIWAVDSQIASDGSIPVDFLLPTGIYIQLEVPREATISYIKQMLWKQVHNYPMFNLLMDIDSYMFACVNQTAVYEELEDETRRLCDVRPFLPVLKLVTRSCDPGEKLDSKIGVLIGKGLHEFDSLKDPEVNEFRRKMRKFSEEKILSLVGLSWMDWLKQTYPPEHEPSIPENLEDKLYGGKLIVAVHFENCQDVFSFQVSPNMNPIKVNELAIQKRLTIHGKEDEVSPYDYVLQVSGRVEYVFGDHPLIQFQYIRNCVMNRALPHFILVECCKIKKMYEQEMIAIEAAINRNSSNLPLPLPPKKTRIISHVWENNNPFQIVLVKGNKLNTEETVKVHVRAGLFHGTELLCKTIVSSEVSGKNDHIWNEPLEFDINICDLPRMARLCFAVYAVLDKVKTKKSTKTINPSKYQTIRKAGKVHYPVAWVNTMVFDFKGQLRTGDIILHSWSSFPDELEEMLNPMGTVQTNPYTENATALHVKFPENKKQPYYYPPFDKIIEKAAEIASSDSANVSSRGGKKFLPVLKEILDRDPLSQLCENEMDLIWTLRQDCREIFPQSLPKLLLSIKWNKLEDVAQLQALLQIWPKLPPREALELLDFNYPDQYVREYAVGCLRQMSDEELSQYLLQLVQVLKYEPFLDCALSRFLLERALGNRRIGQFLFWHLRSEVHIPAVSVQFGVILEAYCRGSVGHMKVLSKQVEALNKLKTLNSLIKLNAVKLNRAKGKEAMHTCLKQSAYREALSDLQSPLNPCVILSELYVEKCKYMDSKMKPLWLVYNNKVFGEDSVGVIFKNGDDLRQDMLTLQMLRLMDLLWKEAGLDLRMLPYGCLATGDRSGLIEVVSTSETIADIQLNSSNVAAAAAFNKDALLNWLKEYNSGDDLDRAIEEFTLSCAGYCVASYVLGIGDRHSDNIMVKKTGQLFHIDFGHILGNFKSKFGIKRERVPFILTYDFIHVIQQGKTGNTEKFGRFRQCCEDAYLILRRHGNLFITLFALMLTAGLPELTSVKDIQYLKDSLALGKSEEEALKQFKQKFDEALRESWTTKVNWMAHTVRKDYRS
PIK3CG (human), sequence (P48736 whole entry, looked up): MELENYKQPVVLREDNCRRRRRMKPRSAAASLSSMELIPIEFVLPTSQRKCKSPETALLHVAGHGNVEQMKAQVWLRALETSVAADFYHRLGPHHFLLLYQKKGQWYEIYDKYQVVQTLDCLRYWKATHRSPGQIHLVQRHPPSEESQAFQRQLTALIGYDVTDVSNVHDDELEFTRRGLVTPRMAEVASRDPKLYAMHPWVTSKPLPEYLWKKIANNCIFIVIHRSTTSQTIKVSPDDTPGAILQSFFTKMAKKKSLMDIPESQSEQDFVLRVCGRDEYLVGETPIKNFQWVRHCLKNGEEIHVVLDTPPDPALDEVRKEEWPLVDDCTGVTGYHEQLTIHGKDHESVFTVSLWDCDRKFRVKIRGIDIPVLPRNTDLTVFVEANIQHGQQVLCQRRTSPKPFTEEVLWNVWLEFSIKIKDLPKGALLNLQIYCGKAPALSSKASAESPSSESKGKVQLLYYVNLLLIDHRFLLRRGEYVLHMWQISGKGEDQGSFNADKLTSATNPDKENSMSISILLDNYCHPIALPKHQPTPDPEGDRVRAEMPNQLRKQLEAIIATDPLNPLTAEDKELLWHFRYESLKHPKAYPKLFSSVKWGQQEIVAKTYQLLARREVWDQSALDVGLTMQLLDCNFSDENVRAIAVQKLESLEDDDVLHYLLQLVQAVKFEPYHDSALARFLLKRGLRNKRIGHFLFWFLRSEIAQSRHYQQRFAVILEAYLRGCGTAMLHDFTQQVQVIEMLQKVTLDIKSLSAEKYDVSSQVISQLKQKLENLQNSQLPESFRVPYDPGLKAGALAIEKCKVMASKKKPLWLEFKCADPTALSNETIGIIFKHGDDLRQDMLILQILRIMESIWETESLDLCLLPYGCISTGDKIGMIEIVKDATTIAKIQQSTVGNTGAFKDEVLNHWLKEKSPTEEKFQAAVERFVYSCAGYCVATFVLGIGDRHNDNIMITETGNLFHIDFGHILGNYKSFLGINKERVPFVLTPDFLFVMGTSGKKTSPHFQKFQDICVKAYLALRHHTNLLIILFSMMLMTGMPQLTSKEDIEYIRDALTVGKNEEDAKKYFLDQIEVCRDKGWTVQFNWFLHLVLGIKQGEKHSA
PIK3CA (human), sequence (P42336 whole entry, looked up): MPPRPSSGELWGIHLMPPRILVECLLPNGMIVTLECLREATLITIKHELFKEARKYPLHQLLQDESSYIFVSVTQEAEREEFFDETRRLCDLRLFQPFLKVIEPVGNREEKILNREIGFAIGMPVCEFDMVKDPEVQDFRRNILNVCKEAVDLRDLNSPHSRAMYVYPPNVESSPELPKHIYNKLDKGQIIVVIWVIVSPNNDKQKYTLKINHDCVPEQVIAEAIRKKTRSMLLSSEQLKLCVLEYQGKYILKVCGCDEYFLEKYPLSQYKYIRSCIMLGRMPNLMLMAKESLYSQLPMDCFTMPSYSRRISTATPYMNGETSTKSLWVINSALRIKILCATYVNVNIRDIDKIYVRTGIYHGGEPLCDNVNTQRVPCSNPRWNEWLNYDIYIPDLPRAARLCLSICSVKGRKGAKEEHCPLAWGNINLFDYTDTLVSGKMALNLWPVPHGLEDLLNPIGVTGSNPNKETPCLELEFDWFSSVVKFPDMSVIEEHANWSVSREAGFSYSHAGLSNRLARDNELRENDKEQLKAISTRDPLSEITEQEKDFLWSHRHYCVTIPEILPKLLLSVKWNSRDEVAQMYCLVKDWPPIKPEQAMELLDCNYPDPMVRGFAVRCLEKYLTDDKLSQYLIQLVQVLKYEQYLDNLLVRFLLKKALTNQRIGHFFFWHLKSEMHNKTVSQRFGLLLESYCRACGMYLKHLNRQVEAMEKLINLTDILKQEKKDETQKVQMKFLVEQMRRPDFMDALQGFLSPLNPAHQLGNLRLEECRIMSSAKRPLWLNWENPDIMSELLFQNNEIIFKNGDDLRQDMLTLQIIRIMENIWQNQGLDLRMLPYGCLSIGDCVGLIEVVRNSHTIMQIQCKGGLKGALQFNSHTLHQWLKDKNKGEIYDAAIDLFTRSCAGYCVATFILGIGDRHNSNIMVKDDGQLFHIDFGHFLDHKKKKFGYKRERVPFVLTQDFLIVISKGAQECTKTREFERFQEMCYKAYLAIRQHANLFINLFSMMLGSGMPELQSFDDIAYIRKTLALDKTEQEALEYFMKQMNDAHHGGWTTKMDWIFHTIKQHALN
PIK3CD (Human), sequence (O00329 whole entry, looked up): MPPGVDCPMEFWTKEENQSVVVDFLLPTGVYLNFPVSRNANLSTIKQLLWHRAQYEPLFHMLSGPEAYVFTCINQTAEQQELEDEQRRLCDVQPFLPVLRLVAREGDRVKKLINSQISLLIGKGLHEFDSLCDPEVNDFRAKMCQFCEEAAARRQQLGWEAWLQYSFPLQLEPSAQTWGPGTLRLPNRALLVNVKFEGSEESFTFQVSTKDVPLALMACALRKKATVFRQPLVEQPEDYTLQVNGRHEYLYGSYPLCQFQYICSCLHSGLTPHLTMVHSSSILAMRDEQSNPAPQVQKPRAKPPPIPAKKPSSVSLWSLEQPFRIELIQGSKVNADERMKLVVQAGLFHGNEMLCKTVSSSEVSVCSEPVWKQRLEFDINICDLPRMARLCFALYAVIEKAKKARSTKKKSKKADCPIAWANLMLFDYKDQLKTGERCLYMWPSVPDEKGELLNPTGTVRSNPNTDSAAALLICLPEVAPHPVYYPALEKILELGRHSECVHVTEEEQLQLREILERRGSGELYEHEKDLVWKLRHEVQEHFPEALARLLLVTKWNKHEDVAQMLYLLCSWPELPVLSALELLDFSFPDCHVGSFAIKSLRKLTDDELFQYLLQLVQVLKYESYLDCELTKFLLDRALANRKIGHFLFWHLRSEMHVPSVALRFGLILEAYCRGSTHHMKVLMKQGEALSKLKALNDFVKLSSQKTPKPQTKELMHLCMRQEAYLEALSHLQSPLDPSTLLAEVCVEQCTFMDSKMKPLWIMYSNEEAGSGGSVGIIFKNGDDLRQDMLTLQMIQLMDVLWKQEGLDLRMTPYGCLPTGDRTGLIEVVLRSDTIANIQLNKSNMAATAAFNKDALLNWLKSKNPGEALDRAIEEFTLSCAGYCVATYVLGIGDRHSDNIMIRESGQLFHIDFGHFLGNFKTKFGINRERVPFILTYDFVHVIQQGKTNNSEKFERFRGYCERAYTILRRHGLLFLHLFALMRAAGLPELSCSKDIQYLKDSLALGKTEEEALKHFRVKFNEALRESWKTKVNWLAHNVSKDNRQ

CN1CCN(C(=O)N2CCC(n3ncc4c(-c5cnc(N)nc5)nc(N5CCOCC5)nc43)CC2)CC1
< 1 µM: all assays above

Nc1ncc(-c2nc(N3CCOCC3)nc3c2cnn3C2CCOCC2)cn1
< 1 µM: all assays above

CC(C)(O)Cn1ncc2c(-c3cnc(N)nc3)nc(N3CCOCC3)nc21
< 1 µM: all assays above

Source: the Kinase Knowledgebase extract (Sharma et al. 2016)
